Results reported in patent publication US4024263A, “1,3-Dihydrospiro[isobenzofuran-1,4'-piperidine]s” (American Hoechst Corporation, priority 1975, dated 1977).
Like-named read-outs stand apart in the source and are kept apart here.

What was measured:
[1] = test system: tetrabenzazine-induced depression; experiment: inhibition of tetrabenzazine-induced depression (ptosis), antidepressant activity; assay type: in vivo, mice; settings: Mus musculus, ip, read-out: Antidepressant ED50 (50% inhibition of ptosis of tetrabenzazine-induced depression)
Excerpt: (§1) The results are expressed in ED50 's (intraperitoneal dose effecting a 50% inhibition of ptosis of tetrabenzazine-induced depression in mice). The doses are in mg/kg of body weight. […] The toxicity data is expressed in ALD50 's (the acute lethal intraperitoneal dose, mg/kg of body weight, in 50% of the mice tested).

[2] = acute lethal toxicity (ALD50); settings: mouse, in vivo, ip; intraperitoneal, groups of four mice; read-out: Toxicity ALD50 (acute lethal dose in 50% of the mice tested)
Excerpt: as §1

[3] = test system: 2-phenyl-1,4-quinone-induced writhing; experiment: 2-phenyl-1,4-quinone-induced writhing assay (analgesia); assay type: in vivo; settings: 50 mg/kg of body weight oral dose, mice
Excerpt: Exptl. Biol. Med., Vol. 45, 729 (1957)].

[4] = test system: supra maximal electro shock; experiment: protection from supra maximal electro shock, anticonvulsant activity (method of Woodbury and Davenport); assay type: in vivo; settings: intraperitoneal dose of about 5 mg/kg of body weight
Experimental: The compounds of the invention are useful as anticonvulsant agents for mammals, as determined by the method of Woodbury, L. A. and Davenport, V. D., in Arch. Int. Pharmacodynam, Vol. 92, (1952) at pages 97-107. For example, 1'-amino-1,3-dihydro-3-phenylspiro[isobenzofuran-1,4'-piperidine]at an intraperitoneal dose of about 5 mg/kg of body weight produced a 50% protection from the effect of a supra maximal electro shock. This datum illustrates the utility of the compounds of the invention for the treatment of convulsion in mammals when administered in amounts ranging from 0.1 to 50 mg/kg of body weight per day.

| SMILES | ED50 [1] | LD50 [2] | ED50 ([1]; intraperitoneal, mice) | inhibition of writhing [3] | protection from the effect of a supra maximal electro shock [4] |
| --- | --- | --- | --- | --- | --- |
| C[N+]1([O-])CCC2(CC1)OC(c1ccccc1)c1ccccc12 (stereo not drawn) [Example 12, 1,3-dihydro-1'-methyl-3-phenylspiro[isobenzofuran-1,4'-piperidine]-1'-oxide] | 6.5 mg/kg | 280 mg/kg | – | – | – |
| ON1CCC2(CC1)OC(c1ccc(F)cc1)c1ccccc12 (stereo not drawn) [Example 11, 1'-hydroxy-1,3-dihydro-3-(4-fluorophenyl)spiro[isobenzofuran-1,4'-piperidine]] | – | 316 mg/kg | 4 mg/kg | – | – |
| O=C(ON1CCC2(CC1)OC(c1ccccc1)c1ccccc12)c1ccccc1 (stereo not drawn) [Example 4, 1'-benzoyloxy-1,3-dihydro-3-phenylspiro[isobenzofuran-1,4'-piperidine]] | – | – | – | 54% | – |
| [O-][N+]1(Cc2ccccc2)CCC2(CC1)OC(c1ccccc1)c1ccccc12 (stereo not drawn) [Example 13, 1'-benzyl-1,3-dihydro-3-phenylspiro[isobenzofuran-1,4'-piperidine]-1'-oxide] | – | – | – | 48% | – |
| COc1ccc2c(c1)C1(CCN(O)CC1)OC2c1ccccc1 (stereo not drawn) [Example 10, 1'-hydroxy-1,3-dihydro-6-methoxy-3-phenylspiro[isobenzofuran-1,4'-piperidine]] | – | > 562 mg/kg | 3.2 mg/kg | – | – |
| NN1CCC2(CC1)OC(c1ccccc1)c1ccccc12 (stereo not drawn) [Example 2, 1'-amino-1,3-dihydro-3-phenylspiro[isobenzofuran-1,4'-piperidine]] | – | 100 mg/kg | 10.3 mg/kg | 53% | 50% |
| CC(C)NN1CCC2(CC1)OC(c1ccccc1)c1ccccc12 (stereo not drawn) [Example 3, 1'-(isopropylamino)1,3'-dihydro-3-phenylspiro[isobenzofuran-1,4'-piperidine]] | – | – | – | 27% | – |
| ON1CCC2(CC1)OC(c1ccccc1)c1ccccc12 (stereo not drawn) [Example 8, 1'-hydroxy-1,3-dihydro-3-phenylspiro[isobenzofuran-1,4'-piperidine]] | – | > 562 mg/kg | 1.4 mg/kg | 53% | – |
| COc1ccc(C2OC3(CCN(O)CC3)c3ccccc32)cc1 (stereo not drawn) [Example 9, 1'-hydroxy-1,3-dihydro-3-(4-methoxyphenyl)spiro[isobenzofuran-1,4'-piperidine]] | – | > 562 mg/kg | 2.6 mg/kg | – | – |
